This passage reports Activity results from ChEMBL document CHEMBL4480365, “Coupling the cell-penetrating peptides transportan and transportan 10 to primaquine enhances its activity against liver-stage malaria parasites” (Medchemcomm, 2019).

The source made the active and inactive calls. No cut-off for these calls is given here. Starred links: 1 amine or outer side, 2 acyl side, 3 side chain; linkers in the order of their positions; H or OH if unused. Residues, ends and D or L forms follow the SMILES beside them. *: point of attachment. X1 = COc1cc(NC(C)CCCNC(=O)C(N)CSSCC(N)C(=O)NC(=O)[C@H](CC(C)C)N*)c2ncccc2c1; Primaquine = COc1cc(NC(C)CCCN*)c2ncccc2c1; Suc = O=C(CCC(=O)[*:2])[*:1]

One data set deals with Plasmodium berghei. In words: Antiplasmodial activity against Plasmodium berghei liver-stage forms at 1 to 10 uM. The data set is classed as functional, organism-based.
In another data set the test system is Huh-7. The data set is described as follows: Cytotoxicity against human HuH7 cells assessed as reduction in cell viability at 1 to 10 uM. The data set is classed as cell-based. The settings on record: huh-7, 10 µM.

In the case of `CC[C@H](C)[C@H](NC(=O)[C@H](CCCCN)NC(=O)[C@H](CCCCN)NC(=O)[C@H](C)NC(=O)[C@H](CC(C)C)NC(=O)[C@H](C)NC(=O)[C@H](C)NC(=O)[C@H](CC(C)C)NC(=O)[C@H](C)NC(=O)[C@H](CCCCN)NC(=O)[C@H](CC(C)C)NC(=O)[C@H](CC(N)=O)NC(=O)[C@@H](NC(=O)[C@H](CCCCN)NC(=O)CNC(=O)[C@H](CC(C)C)NC(=O)[C@H](CC(C)C)NC(=O)[C@H](Cc1ccc(O)cc1)NC(=O)CNC(=O)[C@H](C)N)[C@@H](C)CC)C(=O)N[C@@H](CC(C)C)C(=O)O`, the outcome in the data set on Plasmodium berghei was Active. For the same molecule, the Activity entry in the data set on Huh-7 is recorded as “Non-Toxic”.
On the same counts, the results for `CC[C@H](C)[C@H](NC(=O)[C@H](CCCCN)NC(=O)[C@H](CCCCN)NC(=O)[C@H](C)NC(=O)[C@H](CC(C)C)NC(=O)[C@H](C)NC(=O)[C@H](C)NC(=O)[C@H](CC(C)C)NC(=O)[C@H](C)NC(=O)[C@H](CCCCN)NC(=O)[C@H](CC(C)C)NC(=O)[C@H](CC(N)=O)NC(=O)[C@@H](NC(=O)[C@H](CCCCN)NC(=O)CNC(=O)[C@H](CC(C)C)NC(=O)[C@H](CC(C)C)NC(=O)[C@H](Cc1ccc(O)cc1)NC(=O)CNC(=O)[C@H](C)NC(=O)[C@H](CO)NC(=O)[C@H](CC(N)=O)NC(=O)[C@H](CC(C)C)NC(=O)[C@@H](NC(=O)[C@H](Cc1c[nH]c2ccccc12)NC(=O)CN)[C@@H](C)O)[C@@H](C)CC)C(=O)N[C@@H](CC(C)C)C(=O)O` are “inactive” and “Non-Toxic”.
For `CC[C@H](C)[C@H](NC(=O)[C@H](CCCCN)NC(=O)[C@H](CCCCN)NC(=O)[C@H](C)NC(=O)[C@H](CC(C)C)NC(=O)[C@H](C)NC(=O)[C@H](C)NC(=O)[C@H](CC(C)C)NC(=O)[C@H](C)NC(=O)[C@H](CCCCN)NC(=O)[C@H](CC(C)C)NC(=O)[C@H](CC(N)=O)NC(=O)[C@@H](NC(=O)[C@H](CCCCN)NC(=O)CNC(=O)[C@H](CC(C)C)NC(=O)[C@H](CC(C)C)NC(=O)[C@H](Cc1ccc(O)cc1)NC(=O)CNC(=O)[C@H](C)NC(=O)CCC(=O)NCCCC(C)Nc1cc(OC)cc2cccnc12)[C@@H](C)CC)C(=O)N[C@@H](CC(C)C)C(=O)O` (some centres undefined), in that order: “Active” and “Non-Toxic”.
On the same counts, the results for `CC[C@H](C)[C@H](NC(=O)[C@H](CCCCN)NC(=O)[C@H](CCCCN)NC(=O)[C@H](C)NC(=O)[C@H](CC(C)C)NC(=O)[C@H](C)NC(=O)[C@H](C)NC(=O)[C@H](CC(C)C)NC(=O)[C@H](C)NC(=O)[C@H](CCCCN)NC(=O)[C@H](CC(C)C)NC(=O)[C@H](CC(N)=O)NC(=O)[C@@H](NC(=O)[C@H](CCCCN)NC(=O)CNC(=O)[C@H](CC(C)C)NC(=O)[C@H](CC(C)C)NC(=O)[C@H](Cc1ccc(O)cc1)NC(=O)CNC(=O)[C@H](C)N)[C@@H](C)CC)C(=O)N[C@@H](CC(C)C)C(=O)NC(=O)C(N)CSSCC(N)C(=O)NCCCC(C)Nc1cc(OC)cc2cccnc12` (some centres undefined) (H-AGYLLGKINLKALAALAKKI-X1) are “Active” and “Toxic”.
As to `CC[C@H](C)[C@H](NC(=O)[C@H](CC(C)C)NC(=O)[C@H](Cc1ccccc1)NC(=O)[C@H](Cc1ccccc1)NC(=O)CCC(=O)NCCCC(C)Nc1cc(OC)cc2cccnc12)C(=O)N1CCC[C@H]1C(=O)N[C@@H](CCCCN)C(=O)NCC(=O)NCC(=O)N[C@@H](CCCNC(=N)N)C(=O)N[C@@H](CCCCN)C(=O)N[C@@H](CCCCN)C(=O)N[C@@H](CCCNC(=N)N)C(=O)N[C@@H](CCCNC(=N)N)C(=O)N[C@@H](CCC(N)=O)C(=O)N[C@@H](CCCNC(=N)N)C(=O)N[C@@H](CCCNC(=N)N)C(=O)N[C@@H](CCCNC(=N)N)C(=O)N1CCC[C@H]1C(=O)N1CCC[C@H]1C(=O)N[C@@H](CCC(N)=O)C(=O)O` (some centres undefined) ({Primaquine-Suc}-FFLIPKGGRKKRRQRRRPPQ-OH), in the data set on Huh-7, the Activity result is on record as “Non-Toxic”.
Regarding `COc1cc(NC(C)CCCNC(=O)CCC(=O)N[C@@H](CCCNC(=N)N)C(=O)N[C@@H](CCCCN)C(=O)N[C@@H](CCCCN)C(=O)N[C@@H](CCCNC(=N)N)C(=O)N[C@@H](CCCNC(=N)N)C(=O)N[C@@H](CCC(N)=O)C(=O)N[C@@H](CCCNC(=N)N)C(=O)N[C@@H](CCCNC(=N)N)C(=O)N[C@@H](CCCNC(=N)N)C(=O)N2CCC[C@H]2C(=O)N2CCC[C@H]2C(=O)N[C@@H](CCC(N)=O)C(=O)O)c2ncccc2c1` (some centres undefined) ({Primaquine-Suc}-RKKRRQRRRPPQ-OH), the outcome in the data set on Plasmodium berghei was Active. Besides, in the data set on Huh-7, the Activity result is reported as “Non-Toxic”.
On the same counts, the results for `CC[C@H](C)[C@H](NC(=O)[C@H](CCCNC(=N)N)NC(=O)[C@@H](NC(=O)[C@H](C)NC(=O)[C@@H](NC(=O)[C@@H](NC(=O)[C@H](CC(C)C)NC(=O)[C@H](CCCNC(=N)N)NC(=O)[C@@H](NC(=O)CCC(=O)NCCCC(C)Nc1cc(OC)cc2cccnc12)C(C)C)[C@@H](C)CC)C(C)C)C(C)C)C(=O)N[C@@H](Cc1c[nH]c2ccccc12)C(=O)N[C@@H](CCCNC(=N)N)C(=O)N[C@@H](CCCNC(=N)N)C(=O)O` (some centres undefined) ({Primaquine-Suc}-VRLIVAVRIWRR-OH) are “inactive” and “Non-Toxic”.
On the same counts, the results for `COc1cc(NC(C)CCCN)c2ncccc2c1` (centres undefined) [PRIMAQUINE] are “Active” and “Non-Toxic”.
For H-FFLIPKGGRKKRRQRRRPPQ-OH, in that order: “Active” and “Non-Toxic”.
On to H-RKKRRQRRRPPQ-OH, for which the outcome in the data set on Plasmodium berghei was Active. For the same molecule, in the data set with Huh-7, the Activity entry was “Non-Toxic”.
